Where a name gives a salt, the structure may show the parent alone.
target: T1, human tryptase (Homo sapiens, UniProt P20231); assay: Inhibition of human tryptase: cleavage of chromogenic substrate tos-Gly-Pro-Arg-pNA, equilibrium conditions; format: biochemical; settings: tryptase from human lung tissue; 50 μg of heparin/ml; in the presence of substrate tos-Gly-Pro-Arg-pNA, 405 nm; read-out: Kiapp (apparent dissociation constant)
T1 construct: from tissue; host or cells: human lung tissue
Excerpt: The documented pathophysiological effects of mast cell tryptase are brought about directly by the enzymic activity of the protease. Accordingly, they are reduced or blocked by inhibitors which inhibit the enzymatic activity of the tryptase. The equilibrium dissociation constant Ki of the enzyme-inhibitor complex is a suitable measure of the affinity of a reversible inhibitor for the target protease. This Ki value can be determined by measuring the effect of the inhibitor on the tryptase-induced cleavage of a chromogenic peptide-p-nitroanilide substrate.
The dissociation constants of the tryptase-inhibitor complexes are determined under equilibrium conditions in accordance with the general recommendations of Bieth (Bieth JG, Pathophysiological interpretation of kinetic constants of protease inhibitors, Bull. Europ. Physiopath. Resp. 16:183-195, 1980) and the methods of Sommerhoff et al. (Sommerhoff CP et al., A. Kazal-type inhibitor of human mast cell tryptase: Isolation from the medical leech Hirudo medicinalis, characterization, and sequence analysis, Biol. Chem. Hoppe-Seyler 375: 685-694, 1994).
Human tryptase is prepared in a pure state from lung tissue; the specific activity of the isolated protease, determined by means of titration, is normally 85% of the theoretical value. Constant quantities of tryptase are incubated with increasing quantities of the inhibitors in the presence of 50 μg of heparin/ml for stabilizing the protease. After the equilibrium has been established between the reaction partners, the remaining enzyme activity is determined after adding the peptide-p-nitroanilide substrate tos-Gly-Pro-Arg-pNA, the cleavage of which is monitored at 405 nm over a period of 3 min. Alternatively, the residual enzymic activity can also be determined using fluorogenic substrates. The apparent dissociation constants Kiapp (i.e. in the presence of substrate) are subsequently ascertained by nonlinear regression by fitting the enzyme rates to the general equation for reversible inhibitors (Morrison JF, Kinetics of the reversible inhibition of enzyme-catalysed reactions by tight-binding inhibitors, Biochim. Biophys. Acta 185, 269-286, 1969):
V1/V0=131 {Et+lt+Kiapp−[(Et+lt+Kiapp)^2−4Etlt]^½}/2Et
In this equation, V1, and V0 are the rates in the presence and absence of the inhibitor, respectively, and Et and lt are the concentrations of the tryptase and of the inhibitor.
The apparent dissociation constants which were determined for the compounds according to the invention are given in Table A below, in which the numbers of the compounds correspond to the numbers of the compounds in the examples.

T1 sequence (P20231 31-275): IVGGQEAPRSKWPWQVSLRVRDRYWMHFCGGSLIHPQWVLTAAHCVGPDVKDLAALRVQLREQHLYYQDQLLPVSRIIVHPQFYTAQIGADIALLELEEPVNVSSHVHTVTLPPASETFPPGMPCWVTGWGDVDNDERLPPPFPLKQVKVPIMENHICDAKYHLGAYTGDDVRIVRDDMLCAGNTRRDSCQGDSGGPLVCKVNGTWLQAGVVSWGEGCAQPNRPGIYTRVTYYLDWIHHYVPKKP

Compound	Ki [nM]
NCc1cccc(C(=O)N2CCN(C(=O)c3cccc(C(=O)N4CCN(C(=O)c5cccc(CN)c5)CC4)n3)CC2)c1 [Compound 1, Pyridine-2,6-dicarbobis[4-(3-aminomethylbenzoyl)-1-piperazide]]	3000
NCC1CCC(C(=O)NC2CCN(C(=O)c3cccc(C(=O)N4CCC(NC(=O)C5CCC(CN)CC5)CC4)n3)CC2)CC1 (stereo not drawn) [Compound 15, Pyridine-2,6-dicarbobis[4-(4-aminomethylcyclohexyl-carbonylamino)-1-piperidide]]	3000
NCC1CCC(C(=O)N2CCN(C(=O)Nc3ccc(Oc4ccc(NC(=O)N5CCN(C(=O)C6CCC(CN)CC6)CC5)cc4)cc3)CC2)CC1 (stereo not drawn) [Compound 17, bis{4-[4-(4-Aminomethyl)cyclohexanoylpiperazin-1-yl-]-carbonyl}-4,4′-diaminodiphenyl Ether Dihydrochloride]	22000
CC(C)(c1ccc(OC(=O)N2CCN(C(=O)NCc3ccc(CN)cc3)CC2)cc1)c1ccc(OC(=O)N2CCN(C(=O)NCc3ccc(CN)cc3)CC2)cc1 [Compound 36, 2,2-bis-(4-[4-(4-Aminomethylbenzylcarbamoyl)-1-piperazinylcarbonyloxy]phenyl)propane Dihydrochloride]	28

Next, values leading:

Ki [nM]	Compound
30	NCc1cccc(C(=O)NC2CCN(C(=O)c3cccc(C(=O)N4CCC(NC(=O)c5cccc(CN)c5)CC4)n3)CC2)c1 [Compound 11, Pyridine-2,6-dicarbobis[4-(3-aminomethylbenzoylamino)-1-piperidide]]
100	NCc1cccc(C(=O)N2CCN(C(=O)Nc3ccc(Oc4ccc(NC(=O)N5CCN(C(=O)c6cccc(CN)c6)CC5)cc4)cc3)CC2)c1 [Compound 21, Bis{4-[4-(3-Aminomethyl)benzoylpiperazin-1-yl]-carbonyl}-4,4′-diaminodiphenyl Ether Dihydrochloride]
800	NCC1CCC(C(=O)NC2CCN(C(=O)NC3CCC(CC4CCC(NC(=O)N5CCC(NC(=O)C6CCC(CN)CC6)CC5)CC4)CC3)CC2)CC1 (stereo not drawn) [Compound 23, di{4-[4-(4-Aminomethyl)cyclohexanoylamino]piperidin-1-ylcarbamoyl}cyclohexylmethane Dihydrochloride]
200	CC(C)(c1ccc(OCC(=O)NCc2ccc(NC(=N)N)cc2)cc1)c1ccc(OCC(=O)NCc2ccc(NC(=N)N)cc2)cc1 [Compound 31, 2,2-bis-[4-(4-Guanidinylbenzylamino)carbonylmethoxy-phenyl]propane Dihydroacetate]
2000	CC(C)(c1ccc(OCC(=O)NCC(=O)NCCCCN)cc1)c1ccc(OCC(=O)NCC(=O)NCCCCN)cc1 [Compound 34, 2,2-bis-[4-(10-Amino-3,6-diaza-2,5-dioxodecyloxy)-phenyl]propane Dihydrochloride]

From patent US6613769B1, “Tryptase inhibitors” (Max-Planck-Gesellschaft zur Föderung der Wissenschaften. …, priority 1998, dated 2003)
